One experiment addresses T1, AXL (Homo sapiens, UniProt P30530).
T1 sequence (P30530 26-894): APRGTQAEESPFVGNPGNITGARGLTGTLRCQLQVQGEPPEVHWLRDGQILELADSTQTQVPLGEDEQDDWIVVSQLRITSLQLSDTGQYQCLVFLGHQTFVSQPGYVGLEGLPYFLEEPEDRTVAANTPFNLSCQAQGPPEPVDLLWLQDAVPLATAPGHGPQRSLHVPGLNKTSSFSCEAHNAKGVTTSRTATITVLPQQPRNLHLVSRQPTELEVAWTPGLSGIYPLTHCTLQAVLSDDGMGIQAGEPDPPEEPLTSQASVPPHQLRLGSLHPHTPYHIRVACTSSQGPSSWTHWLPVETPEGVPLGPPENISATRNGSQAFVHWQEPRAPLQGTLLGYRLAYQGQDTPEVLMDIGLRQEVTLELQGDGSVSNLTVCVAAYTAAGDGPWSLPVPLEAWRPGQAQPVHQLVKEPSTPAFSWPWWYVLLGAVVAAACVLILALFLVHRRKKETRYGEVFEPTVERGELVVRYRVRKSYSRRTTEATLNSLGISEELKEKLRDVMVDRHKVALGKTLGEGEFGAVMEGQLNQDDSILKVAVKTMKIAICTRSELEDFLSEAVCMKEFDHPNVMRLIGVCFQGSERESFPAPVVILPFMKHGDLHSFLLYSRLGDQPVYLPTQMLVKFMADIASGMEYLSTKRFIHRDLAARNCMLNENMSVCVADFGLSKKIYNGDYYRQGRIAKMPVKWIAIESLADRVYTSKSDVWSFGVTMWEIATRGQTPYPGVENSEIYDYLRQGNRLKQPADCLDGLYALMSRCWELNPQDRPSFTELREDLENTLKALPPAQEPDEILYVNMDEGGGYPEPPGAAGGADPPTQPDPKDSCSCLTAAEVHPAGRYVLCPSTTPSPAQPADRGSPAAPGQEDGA
As to the kind of experiment: TR-FRET kinase activity assay, AXL. In kind it is biochemical. To be noted: ATP at Km, 60 minutes. Put shortly:
(§1)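 Enzyme + labelled peptide + cpd premixed; ATP at per-enzyme Km starts rxn. 60 min RT, HEPES pH 7.5/MgCl2/EGTA/Brij 35/DTT buffer. Stop 12.5 mM EDTA, Eu phospho-Ab 30 min dark, TR-FRET read → IC50.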
For orientation: TR-FRET usually uses a lanthanide donor and a delayed reading to cut background.

The target in a further experiment is T2, MERTK (Homo sapiens, UniProt Q12866).
T2 sequence (Q12866 21-999): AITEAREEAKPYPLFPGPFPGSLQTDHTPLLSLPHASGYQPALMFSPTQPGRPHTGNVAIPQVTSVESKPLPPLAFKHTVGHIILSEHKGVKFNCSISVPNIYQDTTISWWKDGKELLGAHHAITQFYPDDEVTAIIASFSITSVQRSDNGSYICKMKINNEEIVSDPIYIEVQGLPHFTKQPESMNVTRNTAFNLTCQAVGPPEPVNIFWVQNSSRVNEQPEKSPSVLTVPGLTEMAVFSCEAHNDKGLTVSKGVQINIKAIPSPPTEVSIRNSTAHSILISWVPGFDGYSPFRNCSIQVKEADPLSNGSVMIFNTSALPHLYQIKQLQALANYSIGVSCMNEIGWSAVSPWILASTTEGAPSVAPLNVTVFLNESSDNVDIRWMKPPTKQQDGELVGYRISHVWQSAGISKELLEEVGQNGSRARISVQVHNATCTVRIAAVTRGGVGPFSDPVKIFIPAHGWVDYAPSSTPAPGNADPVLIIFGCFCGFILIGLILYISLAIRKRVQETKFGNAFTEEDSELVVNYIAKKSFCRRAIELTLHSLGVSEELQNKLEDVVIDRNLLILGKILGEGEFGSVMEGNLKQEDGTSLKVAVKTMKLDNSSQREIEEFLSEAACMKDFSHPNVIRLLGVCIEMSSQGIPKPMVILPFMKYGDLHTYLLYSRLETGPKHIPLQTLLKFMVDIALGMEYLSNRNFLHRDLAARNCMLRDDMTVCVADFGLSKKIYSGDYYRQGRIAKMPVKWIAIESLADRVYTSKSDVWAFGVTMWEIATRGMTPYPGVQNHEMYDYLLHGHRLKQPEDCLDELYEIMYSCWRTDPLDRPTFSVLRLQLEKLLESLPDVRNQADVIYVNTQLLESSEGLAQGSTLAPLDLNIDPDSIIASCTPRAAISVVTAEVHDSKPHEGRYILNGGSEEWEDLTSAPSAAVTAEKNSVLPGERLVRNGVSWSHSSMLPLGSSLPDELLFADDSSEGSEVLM
As to the kind of experiment: TR-FRET kinase activity assay, MERTK. It is filed as biochemical. The following applies: for IC50: TR-FRET activity assay, ATP at Km, 60 minutes, read-out: Mer IC50; for FLT3/Mer ratio (FLT3 IC50/Mer IC50): ratio of Mer to FLT3: FLT3 IC50/Mer IC50. The essentials:
as §1

Molecules are shown by their SMILES.

As for `COC[C@H](C)Nc1ncc2c(-c3cnn(Cc4cn[nH]c4)c3)cc([C@H]3CC[C@H](O)CC3)n2n1` [Compound 332], the IC50 on AXL and on MERTK was at most 100 nM each time. The “FLT3/Mer ratio (FLT3 IC50/Mer IC50)” value on MERTK is on record as “+++ (“+++” represents a ratio of >100)”.
The molecule `COC[C@H](C)Nc1ncc2c(-c3cnn(Cc4cc(C)nn4C)c3)cc([C@H]3CC[C@H](O)CC3)n2n1` [Compound 333] returned an IC50 against AXL of at most 100 nM. In addition, on MERTK, the IC50 was at most 100 nM and the “FLT3/Mer ratio (FLT3 IC50/Mer IC50)” value was “+++ (“+++” represents a ratio of >100)”.
As for `CNC(=O)c1ncc(-c2cc([C@H]3CC[C@H](O)CC3)n3nc(N[C@@H](C)COC)ncc23)cn1` [Compound 334], the concentration for half-maximal inhibition (IC50) at AXL is 100 to 1000 nM; on MERTK it was at most 100 nM. Moreover, on MERTK, the “FLT3/Mer ratio (FLT3 IC50/Mer IC50)” value is given as “+++ (“+++” represents a ratio of >100)”.
On AXL, `CNC(=O)c1cc(-c2cc([C@H]3CC[C@H](O)CC3)n3nc(N[C@@H](C)COC)ncc23)cc(C)n1` [Compound 335] showed an IC50 of 100 to 1000 nM. For the same molecule, at MERTK, the IC50 was at most 100 nM and the “FLT3/Mer ratio (FLT3 IC50/Mer IC50)” value is “+++ (“+++” represents a ratio of >100)”.
On the same counts, the results for `CNS(=O)(=O)c1ccc(-c2cc([C@H]3CC[C@H](O)CC3)n3nc(N[C@@H](C)COC)ncc23)cn1` [Compound 336] are at most 100 nM, at most 100 nM and “+++ (“+++” represents a ratio of >100)”.
For the molecule `COC[C@H](C)Nc1ncc2c(-c3ccnc(NC(C)C)c3)cc([C@H]3CC[C@H](O)CC3)n2n1` [Compound 337], at AXL, the IC50 is at most 100 nM. Besides, at MERTK, the IC50 is at most 100 nM and the “FLT3/Mer ratio (FLT3 IC50/Mer IC50)” value was “+++ (“+++” represents a ratio of >100)”.
The molecule `COC[C@H](C)Nc1ncc2c(-c3ccnc(N4CCN(S(C)(=O)=O)CC4)c3)cc([C@H]3CC[C@H](O)CC3)n2n1` [Compound 338] registered an IC50 against AXL of at most 100 nM. At MERTK, the IC50 is at most 100 nM and the “FLT3/Mer ratio (FLT3 IC50/Mer IC50)” value is recorded as “+++ (“+++” represents a ratio of >100)”.
For `COC[C@H](C)Nc1ncc2c(-c3ccnc(N4CCCC4)c3)cc([C@H]3CC[C@H](O)CC3)n2n1` [Compound 339], the IC50 against AXL and on MERTK was at most 100 nM throughout. Besides, the “FLT3/Mer ratio (FLT3 IC50/Mer IC50)” value on MERTK is given as “+++ (“+++” represents a ratio of >100)”.
On to `COC[C@H](C)Nc1ncc2c(-c3ccnc(N4CCNC(=O)C4)c3)cc([C@H]3CC[C@H](O)CC3)n2n1` [Compound 340], for which the IC50 against AXL and on MERTK was at most 100 nM in each case. Further, the “FLT3/Mer ratio (FLT3 IC50/Mer IC50)” value on MERTK is on record as “+++ (“+++” represents a ratio of >100)”.
As to `COC[C@H](C)Nc1ncc2c(-c3ccnc(OC4CCCN(C)C4)c3)cc([C@H]3CC[C@H](O)CC3)n2n1` (stereo partly drawn) [Compound 341], the IC50 against AXL is at most 100 nM. Further, at MERTK, the IC50 was at most 100 nM and the “FLT3/Mer ratio (FLT3 IC50/Mer IC50)” value is recorded as “+++ (“+++” represents a ratio of >100)”.
On to `COC[C@H](C)Nc1ncc2c(-c3ccnc(OC4CCN(C)CC4)c3)cc([C@H]3CC[C@H](O)CC3)n2n1` [Compound 342], for which the IC50 on AXL was at most 100 nM. Besides, at MERTK, the IC50 is at most 100 nM and the “FLT3/Mer ratio (FLT3 IC50/Mer IC50)” value is recorded as “+++ (“+++” represents a ratio of >100)”.
On AXL, `COC[C@H](C)Nc1ncc2c(-c3ccnc(OC(C)C)c3)cc([C@H]3CC[C@H](O)CC3)n2n1` [Compound 343] gave an IC50 of at most 100 nM. For the same molecule, on MERTK, the IC50 is at most 100 nM and the “FLT3/Mer ratio (FLT3 IC50/Mer IC50)” value is given as “+++ (“+++” represents a ratio of >100)”.
Turning to `COC[C@H](C)Nc1ncc2c(-c3ccnc(N4CCN(C(C)=O)CC4)c3)cc([C@H]3CC[C@H](O)CC3)n2n1` [Compound 344], the IC50 at AXL was at most 100 nM. On MERTK, the IC50 was at most 100 nM and the “FLT3/Mer ratio (FLT3 IC50/Mer IC50)” value is “+++ (“+++” represents a ratio of >100)”.
Turning to `COCCOc1cc(-c2cc([C@H]3CC[C@H](O)CC3)n3nc(N[C@@H](C)COC)ncc23)ccn1` [Compound 345], the IC50 against AXL is at most 100 nM. Besides, at MERTK, the IC50 was at most 100 nM and the “FLT3/Mer ratio (FLT3 IC50/Mer IC50)” value is “+++ (“+++” represents a ratio of >100)”.

Broadly, the IC50 is the point on the concentration scale where inhibition reaches its midpoint.
